{"source": "paper PMC9757746", "about": "(Science Advances, 2022)", "assay_type_in_all_cases": "biochemical", "key": {"Cys4 (C. albicans CBS) [1]": {"target": "T1, Cys4 (C. albicans CBS) (Candida albicans, UniProt Q59T95)", "T1 sequence (Q59T95 1-496)": "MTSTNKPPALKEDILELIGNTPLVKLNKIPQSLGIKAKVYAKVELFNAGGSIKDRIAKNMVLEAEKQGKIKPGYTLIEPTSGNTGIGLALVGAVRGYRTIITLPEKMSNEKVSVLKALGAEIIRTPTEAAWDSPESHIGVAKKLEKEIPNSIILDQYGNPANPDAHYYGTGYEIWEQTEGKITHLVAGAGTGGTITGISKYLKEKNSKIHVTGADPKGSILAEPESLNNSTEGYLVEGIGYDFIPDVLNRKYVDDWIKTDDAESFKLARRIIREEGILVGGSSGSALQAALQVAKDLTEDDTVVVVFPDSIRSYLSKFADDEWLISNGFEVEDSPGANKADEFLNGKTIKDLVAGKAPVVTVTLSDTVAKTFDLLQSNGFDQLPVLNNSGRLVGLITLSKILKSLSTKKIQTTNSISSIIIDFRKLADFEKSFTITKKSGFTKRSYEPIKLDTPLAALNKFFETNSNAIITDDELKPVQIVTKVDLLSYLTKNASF", "assay": "H2S generation, lead acetate, A390", "settings": "10 mM L-cysteine, 10 mM L-homocysteine, 50 μM PLP, 200 mM Na/bicine pH 8.6, 37 °C; screening hit"}, "Cys4 (C. albicans CBS) [2]": {"target": "T1, Cys4 (C. albicans CBS)", "assay": "H2S generation, lead acetate, A390", "settings": "10 mM L-cysteine, 10 mM L-homocysteine, 50 μM PLP, 200 mM Na/bicine pH 8.6, 37 °C; 10 min preincubation"}, "cCBS-cc": {"target": "T2, cCBS-cc (Candida albicans, UniProt Q59T95)", "T2 sequence (Q59T95 1-319)": "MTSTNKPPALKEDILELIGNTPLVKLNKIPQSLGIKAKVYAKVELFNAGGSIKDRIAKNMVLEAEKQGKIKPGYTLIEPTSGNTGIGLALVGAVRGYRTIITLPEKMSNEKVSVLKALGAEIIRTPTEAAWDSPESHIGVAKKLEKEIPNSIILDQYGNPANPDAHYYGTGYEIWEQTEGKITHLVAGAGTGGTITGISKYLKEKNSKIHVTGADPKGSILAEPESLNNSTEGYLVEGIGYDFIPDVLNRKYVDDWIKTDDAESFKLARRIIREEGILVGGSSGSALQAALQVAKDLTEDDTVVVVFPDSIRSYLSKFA", "assay": "H2S generation inhibition", "settings": "catalytic core"}, "Cys3 (C. albicans CSE)": {"target": "T3, Cys3 (C. albicans CSE) (Candida albicans, UniProt Q5A362)", "T3 sequence (Q5A362 1-399)": "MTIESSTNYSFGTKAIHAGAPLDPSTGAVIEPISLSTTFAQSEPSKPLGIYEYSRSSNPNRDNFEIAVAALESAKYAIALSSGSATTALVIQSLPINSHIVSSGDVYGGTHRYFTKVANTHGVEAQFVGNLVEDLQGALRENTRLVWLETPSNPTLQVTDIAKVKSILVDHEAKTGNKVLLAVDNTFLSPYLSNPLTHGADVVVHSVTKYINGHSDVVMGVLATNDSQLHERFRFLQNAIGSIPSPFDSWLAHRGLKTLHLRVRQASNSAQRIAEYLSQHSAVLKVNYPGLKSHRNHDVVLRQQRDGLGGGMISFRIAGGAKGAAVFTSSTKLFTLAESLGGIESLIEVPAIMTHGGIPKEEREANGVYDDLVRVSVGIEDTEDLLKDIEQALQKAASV", "assay": "CSE activity inhibition", "settings": "weaker inhibition than of CBS"}, "human CBS": {"target": "T4, human CBS (Homo sapiens, UniProt P35520)", "T4 sequence (P35520 1-551)": "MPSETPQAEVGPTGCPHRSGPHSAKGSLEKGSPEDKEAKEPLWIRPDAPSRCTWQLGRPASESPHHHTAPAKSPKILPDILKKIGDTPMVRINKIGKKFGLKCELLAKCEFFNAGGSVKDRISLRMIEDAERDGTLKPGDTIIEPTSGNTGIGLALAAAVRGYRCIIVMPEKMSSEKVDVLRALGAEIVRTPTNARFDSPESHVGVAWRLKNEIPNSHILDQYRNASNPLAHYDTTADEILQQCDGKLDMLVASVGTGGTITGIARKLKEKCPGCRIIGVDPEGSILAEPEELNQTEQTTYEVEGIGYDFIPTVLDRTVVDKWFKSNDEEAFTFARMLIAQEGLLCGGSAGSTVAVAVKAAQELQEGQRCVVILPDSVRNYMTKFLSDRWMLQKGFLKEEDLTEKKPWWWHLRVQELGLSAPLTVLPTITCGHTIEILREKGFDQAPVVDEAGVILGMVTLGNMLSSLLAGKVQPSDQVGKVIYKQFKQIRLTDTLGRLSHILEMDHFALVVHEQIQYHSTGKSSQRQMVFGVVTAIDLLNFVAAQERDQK", "assay": "CBS activity inhibition", "settings": "weaker inhibition than of fungal CBS"}}}
{"smiles": "CC(=O)c1c(O)c(C)c(O)c2c1OC1=CC(=O)C(C(C)=O)C(=O)C12C", "note": "(stereo not drawn) [usnic acid]", "values": [{"measurement": "H2S generation, lead acetate, A390", "setting": "Cys4 (C. albicans CBS) [1]", "value": "alternariol, and usnic acid (Fig. 5A and fig. S17)"}]}
{"smiles": "NOCC(=O)O", "note": "[Aminooxyacetate]", "values": [{"measurement": "dose-dependent inhibition", "setting": "Cys4 (C. albicans CBS) [2]", "value": "Dose-dependent inhibition of C. albicans CBS activity by PA and AOA"}]}
{"smiles": "Cc1cc(O)cc2oc(=O)c3c(O)cc(O)cc3c12", "note": "[alternariol]", "values": [{"measurement": "H2S generation, lead acetate, A390", "setting": "Cys4 (C. albicans CBS) [1]", "value": "several hits that displayed much better activity than AOA, including PA"}]}
{"smiles": "C=C1C(=O)O[C@@H](CCCCCCCCCCCCC)[C@@H]1C(=O)O", "note": "[protolichesterinic acid]", "values": [{"measurement": "H2S generation inhibition", "setting": "cCBS-cc", "value": "still maintains potent ability to generate H2S and is inhibited by PA (fig. S24)"}, {"measurement": "CSE activity inhibition", "setting": "Cys3 (C. albicans CSE)", "value": "it inhibited CBS more potently than CSE (fig. S18)"}, {"measurement": "CBS activity inhibition", "setting": "human CBS", "value": "fungal CBS more potently than human CBS (fig. S19)"}]}
